This note sets out measurements from patent US20250090437A1, “COSMETIC COMPOUNDING AGENT, COSMETIC AND PRODUCTION METHOD THEREOF” (MIYOSHI OIL & FAT CO., LTD., priority 2019, published 2025).

The nature of data set [1]: Water retention property test 1. Type of data set: physicochemical. Conditions: 80 wt % aqueous solution; for Pre-test moisture rate: before the test (Karl Fischer); for Post-test moisture rate / Rate of reduction in moisture: unsealed; for Post-test moisture rate / Rate of reduction in moisture / Water retention property test 1 Post-test moisture rate / Water retention property test 1 Rate of reduction in moisture: 24 hours at 40° C. and 25% RH. The method, then: A moisture rate after 24 hours was again measured (post-test moisture rate: B), followed by using the formula below to calculate a rate of reduction in moisture so as to evaluate the water retention property. • Pre-test moisture rate: A (%) • Post-test moisture rate: B (%)

Data set [2] can be described thus: Water retention property test 2 (hydrates). It is filed as physicochemical. Conditions: hydrate (anhydrides: aqueous solution at mono- to trihydrate concentration); for Pre-test moisture rate: before the test; for Post-test moisture rate / Rate of reduction in moisture: unsealed, 24 hours at 40° C. and 25% RH. The method, then:
(2) Water retention property test 2 The water retention property of the hydrate of each compound was evaluated. Hydrates were used in the cases of the compounds C1 to C38, C40 to C49 and C56 to C59; however, since the compounds C39 and C62 to C64 were anhydrides, there were used aqueous solutions prepared by adding water so that a concentration would be that of monohydrate to trihydrate. The moisture rate of the sample(s) was confirmed using a Karl Fischer moisture meter (pre-test moisture rate: A). Next, 1.0 g of each of these samples was added to a screw tube, and this screw tube, while remaining unsealed, was then left to stand still for 24 hours in a thermo-hygrostat set to 40° C. and 25% RH. A moisture rate after 24 hours was again measured (post-test moisture rate: B), followed by calculating a rate of reduction in moisture in a similar manner as above so as to evaluate the water retention property. Here, a comparative evaluation was performed on each hydrate of the compounds C1 to C38, C40 to C49 and C56 to C59 together with an aqueous solution(s) of the compound C39 having a concentration(s) corresponding to the numbers of these hydration waters.
(monohydrates in compounds C1 to C38, C40 to C49 and C56 to C59 of working examples C62 to C99, C103 to C116 with compound C39 of working example C100, compound C62 of comparative example C4, compound C63 of comparative example C7 and compound C64 of comparative example C10)
(dihydrates in compounds C1 to C38, C40 to C49 and C56 to C59 of working examples C62 to C99, C103 to C116 with compound C39 of working example C101, compound C62 of comparative example C5, compound C63 of comparative example C8 and compound C64 of comparative example C11)
(trihydrates in compounds C1 to C38, C40 to C49 and C56 to C59 of working examples C62 to C99, C103 to C116 with compound C39 of working example C102, compound C62 of comparative example C6, compound C63 of comparative example C9 and compound C64 of comparative example C12)

As for `CC(O)C(=O)O.NCCCC(=O)O` [Compound C60], in data set [1], the Pre-test moisture rate worked out at 20.0%, the Post-test moisture rate was found to be 18.1% and the “Rate of reduction in moisture” value was 9.9%.

`C[N+](C)(C)CCO.O=P([O-])(O)O` [Compound C33]: in data set [1], the “Water retention property test 1 Pre-test moisture rate” value stood at 20.0%, the “Water retention property test 1 Post-test moisture rate” value was 19.4% and the “Water retention property test 1 Rate of reduction in moisture” value was found to be 3.0%.

For `O=C1OC(C(O)CO)C(O)=C1O.OCCN(CCO)CCO` (stereo not drawn) [Compound C42], in data set [1], the “Water retention property test 1 Pre-test moisture rate” value amounted to 20.0%, the “Water retention property test 1 Post-test moisture rate” value amounted to 19.1% and the “Water retention property test 1 Rate of reduction in moisture” value came out at 4.4%.

Take `CC(O)C(=O)[O-].OCC[N+](CCO)(CCO)CCO` [Compound C26]: in data set [1], the “Water retention property test 1 Pre-test moisture rate” value is reported as 20.0%, the “Water retention property test 1 Post-test moisture rate” value worked out at 19.0% and the “Water retention property test 1 Rate of reduction in moisture” value was determined as 5.0%.

On to `CC(=O)[O-].C[N+](C)(C)CCO` [Compound C27], for which, in data set [1], the “Water retention property test 1 Pre-test moisture rate” value was determined as 20.0%, the “Water retention property test 1 Post-test moisture rate” value was found to be 19.0% and the “Water retention property test 1 Rate of reduction in moisture” value is 5.0%.

For the compound `C[N+](C)(C)CCO.O=[PH2][O-]` [Compound C34], in data set [1], the “Water retention property test 1 Pre-test moisture rate” value amounted to 20.0%, the “Water retention property test 1 Post-test moisture rate” value is on record as 19.4% and the “Water retention property test 1 Rate of reduction in moisture” value was determined as 3.0%.

For `CC(CO)CO` [Compound C45], in data set [1], the “Water retention property test 1 Pre-test moisture rate” value is recorded as 20.0%, the “Water retention property test 1 Post-test moisture rate” value is given as 19.5% and the “Water retention property test 1 Rate of reduction in moisture” value was determined as 2.5%.

As to `O=C1OC(C(O)CO)C(O)=C1O.OCCNCCO` (stereo not drawn) [Compound C41], in data set [1], the “Water retention property test 1 Pre-test moisture rate” value came to 20.0%, the “Water retention property test 1 Post-test moisture rate” value is 19.2% and the “Water retention property test 1 Rate of reduction in moisture” value worked out at 4.1%.

Take `CCC(O)C(O)C(O)C(O)CO` (stereo not drawn) [Compound C56]: in data set [1], the Pre-test moisture rate is 20.0%, the Post-test moisture rate was found to be 19.7% and the “Rate of reduction in moisture” value was found to be 1.7%.

Turning to `C[N+](C)(C)CC(O)CC(=O)O.O=C1O[C@H]([C@@H](O)CO)C([O-])=C1O` [Compound C58], in data set [1], the Pre-test moisture rate is on record as 20.0%, the Post-test moisture rate turned out to be 19.2% and the “Rate of reduction in moisture” value amounted to 4.1%.

As to `NC(CO)(CO)CO.O=C(O)CC(O)(CC(=O)O)C(=O)O` [Compound C21], in data set [1], the “Water retention property test 1 Pre-test moisture rate” value turned out to be 20.0% 20.0%, the “Water retention property test 1 Post-test moisture rate” value is recorded as 19.0% and the “Water retention property test 1 Rate of reduction in moisture” value was found to be 5.1%.

On to `CC(O)C(=O)O.CCC(N)(CO)CO` [Working example C76], for which, in data set [2], the Pre-test moisture rate is 14.7%, the Post-test moisture rate is reported as 14.3% and the “Rate of reduction in moisture” value came out at 3.0%.

Take `CC(=O)[O-].C[N+](C)(C)CCO` [Working example C88]: in data set [2], the Pre-test moisture rate stood at 9.9%, the Post-test moisture rate is 9.5% and the “Rate of reduction in moisture” value worked out at 4.0%.

For the compound `CCCCn1cc[n+](C)c1.F[B-](F)(F)F` [Comparative example C7], in data set [2], the Pre-test moisture rate came to 7.4%, the Post-test moisture rate was 3.9% and the “Rate of reduction in moisture” value came to 47.3%.

With `CC(O)C(=O)O.NCCO` (stereo not drawn) [Working example C62], in data set [2], the Pre-test moisture rate is listed as 10.7%, the Post-test moisture rate worked out at 10.5% and the “Rate of reduction in moisture” value amounted to 1.9%.

Consider `CC(O)C(=O)O.OCCN(CCO)CCO` [Working example C66], for which, in data set [2], the Pre-test moisture rate amounted to 18.4%, the Post-test moisture rate was determined as 17.7% and the “Rate of reduction in moisture” value stood at 3.8%.

For the compound `C[N+](C)(CCO)CC(O)CO.[Cl-]` (stereo not drawn) [Working example C98], in data set [2], the Pre-test moisture rate is 15.3%, the Post-test moisture rate is listed as 14.0% and the “Rate of reduction in moisture” value stood at 8.7%.

For `C[N+](C)(C)CCO.O=C1OC(C(O)CO)C([O-])=C1O` (stereo not drawn) [Working example C110], in data set [2], the Pre-test moisture rate is 11.4%, the Post-test moisture rate was 11.2% and the “Rate of reduction in moisture” value came out at 1.8%.

With `NC(CO)CO.O=C(O)CC(O)(CC(=O)O)C(=O)O` [Working example C71], in data set [2], the Pre-test moisture rate amounted to 11.3%, the Post-test moisture rate is on record as 10.7% and the “Rate of reduction in moisture” value came out at 5.4%.

With `CC(O)C(=O)[O-].OCC[N+](CCO)(CCO)CCO` [Working example C87], in data set [2], the Pre-test moisture rate is 11.2%, the Post-test moisture rate worked out at 10.7% and the “Rate of reduction in moisture” value is on record as 4.8%.

Regarding `Br.NC(CO)CO` [Working example C74], in data set [2], the Pre-test moisture rate amounted to 17.3%, the Post-test moisture rate turned out to be 15.7% and the “Rate of reduction in moisture” value amounted to 9.5%.

As to `C[N+](C)(C)CCO.O=P([O-])(O)O` [Working example C94], in data set [2], the Pre-test moisture rate amounted to 8.2%, the Post-test moisture rate was 8.0% and the “Rate of reduction in moisture” value came to 2.8%.

`CC(N)(CO)CO.CC(O)C(=O)O` [Working example C114]: in data set [2], the Pre-test moisture rate is given as 15.6%, the Post-test moisture rate is listed as 15.2% and the “Rate of reduction in moisture” value was 2.8%.

With `CCC(N)(CO)CO.O=C(O)CC(O)(CC(=O)O)C(=O)O` [Working example C77], in data set [2], the Pre-test moisture rate worked out at 10.4%, the Post-test moisture rate amounted to 9.9% and the “Rate of reduction in moisture” value is on record as 4.9%.

Turning to `NC(CO)(CO)CO.O=C(O)CC(O)(CC(=O)O)C(=O)O` [Working example C82], in data set [2], the Pre-test moisture rate is 10.3%, the Post-test moisture rate came out at 9.8% and the “Rate of reduction in moisture” value turned out to be 5.0%.

With `OCC(O)CO` [Comparative example C10], in data set [2], the Pre-test moisture rate came out at 16.4%, the Post-test moisture rate is 15.3% and the “Rate of reduction in moisture” value was 6.7%.

As to `CC(C)(N)CO.CC(O)C(=O)O` [Working example C113], in data set [2], the Pre-test moisture rate is given as 16.7%, the Post-test moisture rate came to 16.3% and the “Rate of reduction in moisture” value is given as 2.5%.

Regarding `CS(=O)(=O)O.NC(CO)CO` [Working example C72], in data set [2], the Pre-test moisture rate worked out at 16.1%, the Post-test moisture rate is recorded as 16.0% and the “Rate of reduction in moisture” value is on record as 0.4%.

On to `CCC(N)(CO)CO.O=C1O[C@H]([C@@H](O)CO)C(O)=C1O` [Working example C107], for which, in data set [2], the Pre-test moisture rate is 10.9%, the Post-test moisture rate came to 10.6% and the “Rate of reduction in moisture” value was 2.8%.

As for `CCCC[N+](CCCC)(CCCC)CCCC.[Br-]` [Comparative example C6], in data set [2], the Pre-test moisture rate is listed as 14.4%, the Post-test moisture rate was 10.8% and the “Rate of reduction in moisture” value is given as 25.1%.

For `C[N+](C)(C)CCO.O=C([O-])CO` [Working example C89], in data set [2], the Pre-test moisture rate was determined as 9.1%, the Post-test moisture rate turned out to be 8.9% and the “Rate of reduction in moisture” value came to 2.6%.

As for `O=C(O)CO.OCCNCCO` [Working example C64], in data set [2], the Pre-test moisture rate was 16.6%, the Post-test moisture rate is 16.1% and the “Rate of reduction in moisture” value turned out to be 3.0%.

`NCC(O)C(O)C(O)C(O)CO.O=C1OC(C(O)CO)C(O)=C1O` (stereo not drawn) [Working example C109]: in data set [2], the Pre-test moisture rate is listed as 9.2%, the Post-test moisture rate came to 9.1% and the “Rate of reduction in moisture” value was found to be 1.1%.

Regarding `Br.CCC(N)(CO)CO` [Working example C79], in data set [2], the Pre-test moisture rate was 15.3%, the Post-test moisture rate was 13.9% and the “Rate of reduction in moisture” value is listed as 8.9%.

On to `CC(=O)O.NC(CO)CO` [Working example C67], for which, in data set [2], the Pre-test moisture rate is given as 19.3%, the Post-test moisture rate turned out to be 18.8% and the “Rate of reduction in moisture” value came to 2.8%.

In the case of `CCCCn1cc[n+](C)c1.F[B-](F)(F)F` [Comparative example C9], in data set [2], the Pre-test moisture rate came out at 19.3%, the Post-test moisture rate was determined as 11.2% and the “Rate of reduction in moisture” value was 42.1%.
